Among the data in article PMC8356643 (2019) are Ka, binding and ΔT values, retold here.

In assay [1] the test system is cMyc (DNA, G4) TGAGGGTGGGTAGGGTGGGTAA
The assay can be described thus: fluorescence titration. The conditions noted are these: 100 mM K+; 6 mM Na2HPO4, 2 mM NaH2PO4 7.1, 1 mM Na2EDTA, 100 mM KCl.

The test system of assay [2] is THM (DNA, G4) GGGTTGGGTTGGGTTGGG
The assay is described as follows: UV-vis titration. The conditions noted are these: 5 mM K+, 95 mM Li+; 10 mM lithium cacodylate 7.2, 95 mM LiCl, 5 mM KCl.

The test system is the same in assay [3]. The assay is described as follows: ITC. Conditions: 5 mM K+, 95 mM Li+; 10 mM lithium cacodylate 7.2, 95 mM LiCl, 5 mM KCl.
Assay [4] relates to VEGF (DNA, G4) GGGAGGGTTGGGGTGGG
The assay can be described thus: UV-vis titration. The conditions noted are these: 5 mM K+, 95 mM Li+; 10 mM lithium cacodylate 7.2, 95 mM LiCl, 5 mM KCl; parallel dimer.

Assay [5] has as its system cMyc (DNA, G4) TGAGGGTGGGTAGGGTGGGTAA
The assay can be described thus: UV-vis titration. Conditions: 100 mM K+; 6 mM Na2HPO4, 2 mM NaH2PO4 7.1, 1 mM Na2EDTA, 100 mM KCl.

Assay [6] relates to THM (DNA, G4) GGGTTGGGTTGGGTTGGG
The assay is described as follows: fluorescence titration. Conditions: 5 mM K+, 95 mM Li+; 10 mM lithium cacodylate 7.2, 95 mM LiCl, 5 mM KCl.

For assay [7] the test system is unchanged. The assay is described as follows: X-ray crystallography. Conditions: K+; 2.4 Å; end-stacking to the 3' G-tetrad.
Assay [8] relates to G4TERT (DNA, G4) AGGGGAGGGGCTGGGAGGGC
The assay is described as follows: UV-vis titration. The conditions noted are these: 5 mM K+, 95 mM Li+; 10 mM lithium cacodylate 7.2, 95 mM LiCl, 5 mM KCl; parallel dimer.

Assay [9] relates to THM (DNA, G4) GGGTTGGGTTGGGTTGGG
The assay can be described thus: CD melting. The conditions noted are these: 5 mM K+; 2 eq NMM.

`CCc1c(C)c2cc3nc(cc4nc(cc5c(CC)c(C)c(cc1[nH]2)n5C)C(C)=C4CCC(=O)O)C(CCC(=O)O)=C3C`: the Ka in [1] is recorded as 7.4 ± 2 × 10^6 M^-1; in assay [2] it was 30 ± 20 × 10^6 M^-1; in assay [3], 70 ± 20 × 10^6 M^-1; in [4], 10. ± 2 × 10^6 M^-1; in assay [5], 19 ± 6 × 10^6 M^-1; in assay [6], 50 ± 20 × 10^6 M^-1. For the same compound, the Ka in assay [8] was 1.7 ± 0.7 × 10^6 M^-1. The binding entry in assay [7] is “yes”. In addition, the ΔT in [9] amounted to 23 ± 2 °C.
